# Reference: publication PMC8494734 (Scientific Reports, 2021)
# Columns and labels:
# [1] = molecular target: T1, recombinant NirK protein (MRA2164) (Mycobacterium tuberculosis, UniProt A5U4H6); assay: biochemical; settings: read-out: % inhibition at 5 mM
# T1 construct: gene yfiH
# [2] = molecular target: T1, recombinant NirK protein (MRA2164)
# O=NO = assay: purified protein; settings: pH 7.0; 37.0 °C
# T1 sequence (A5U4H6 entry or part of it): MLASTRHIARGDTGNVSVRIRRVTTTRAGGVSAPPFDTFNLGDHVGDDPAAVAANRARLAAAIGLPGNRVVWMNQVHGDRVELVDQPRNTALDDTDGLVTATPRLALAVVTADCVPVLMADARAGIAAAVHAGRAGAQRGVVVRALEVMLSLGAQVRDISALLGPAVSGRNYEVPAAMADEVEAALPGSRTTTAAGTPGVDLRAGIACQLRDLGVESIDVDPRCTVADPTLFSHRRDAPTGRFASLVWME
Compound,% inhibition at 5 mM [2] [%],other results
NC(=O)C1=CN([C@@H]2O[C@H](COP(=O)(O)OP(=O)(O)OC[C@H]3O[C@@H](n4cnc5c(N)ncnc54)[C@H](O)[C@@H]3O)[C@@H](O)[C@H]2O)C=CC1 [NADH],,inhibition at 5000 µM [1]: 92.3%
[N-]=[N+]=[N-] [azide],95.16,
O=[N+]([O-])O [nitrate],47.40,
recombinant NirK protein (MRA2164) (Mycobacterium tuberculosis H37Ra),,Km (O=NO): 17.16 mM
